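Where inhibition never reached the appropriate level, the endpoint shown equals the highest concentration tested. Otherwise, values were interpolated linearly from a five-concentration, 48-hour dose response in 96-well plates. TGI marks complete inhibition of growth.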
Assays:
Assay in all cases: NCI-60 cell line screen, 48 h
CAKI-1 renal = system: CAKI-1 renal
COLO 205 colon = system: COLO 205 colon
HOP-62 NSCLC = system: HOP-62 NSCLC
HOP-18 NSCLC = system: HOP-18 NSCLC
RPMI-8226 leukemia = system: RPMI-8226 leukemia
DLD-1 colon = system: DLD-1 colon
EKVX NSCLC = system: EKVX NSCLC
NCI-H23 lung = system: NCI-H23 lung
UO-31 renal = system: UO-31 renal
NCI-H226 lung = system: NCI-H226 lung
MALME-3M melanoma = system: MALME-3M melanoma
A549 NSCLC = system: A549 NSCLC
HOP-92 NSCLC = system: HOP-92 NSCLC
NCI-H460 lung = system: NCI-H460 lung
OVCAR-4 ovarian = system: OVCAR-4 ovarian
UACC-62 melanoma = system: UACC-62 melanoma
CCRF-CEM leukemia = system: CCRF-CEM leukemia
KM20L2 colon = system: KM20L2 colon
SNB-75 CNS = system: SNB-75 CNS
KM12 colon = system: KM12 colon
TK-10 renal = system: TK-10 renal
OVCAR-8 ovarian = system: OVCAR-8 ovarian
786-0 renal = system: 786-0 renal
DMS 273 small cell lung = system: DMS 273 small cell lung
XF 498 CNS = system: XF 498 CNS
HCT-15 colon = system: HCT-15 colon
SF-268 CNS = system: SF-268 CNS
IGROV1 ovarian = system: IGROV1 ovarian
SNB-19 CNS = system: SNB-19 CNS
M19-MEL melanoma = system: M19-MEL melanoma
HL-60(TB) leukemia = system: HL-60(TB) leukemia
HCT-116 colon = system: HCT-116 colon
HT29 colon = system: HT29 colon
UACC-257 melanoma = system: UACC-257 melanoma
SK-MEL-5 melanoma = system: SK-MEL-5 melanoma
M14 melanoma = system: M14 melanoma
SF-295 CNS = system: SF-295 CNS
MOLT-4 leukemia = system: MOLT-4 leukemia
SK-MEL-28 melanoma = system: SK-MEL-28 melanoma
SW-620 colon = system: SW-620 colon
DMS 114 small cell lung = system: DMS 114 small cell lung
SK-MEL-2 melanoma = system: SK-MEL-2 melanoma
LOX IMVI melanoma = system: LOX IMVI melanoma
SN12C renal = system: SN12C renal
K-562 leukemia = system: K-562 leukemia
OVCAR-5 ovarian = system: OVCAR-5 ovarian
LXFL 529 NSCLC = system: LXFL 529 NSCLC
A498 renal = system: A498 renal
SNB-78 CNS = system: SNB-78 CNS
SF-539 CNS = system: SF-539 CNS
ACHN renal = system: ACHN renal
MDA-N = system: MDA-N
HS 578T breast = system: HS 578T breast
SR leukemia = system: SR leukemia
MDA-MB-435 = system: MDA-MB-435
OVCAR-3 ovarian = system: OVCAR-3 ovarian
NCI/ADR-RES ovarian = system: NCI/ADR-RES ovarian
RXF 393 renal = system: RXF 393 renal
MDA-MB-231 breast = system: MDA-MB-231 breast
BT-549 breast = system: BT-549 breast
HCC-2998 colon = system: HCC-2998 colon
T-47D breast = system: T-47D breast
NCI-H522 lung = system: NCI-H522 lung
DU-145 prostate = system: DU-145 prostate
MCF7 breast = system: MCF7 breast
PC-3 prostate = system: PC-3 prostate
SK-OV-3 ovarian = system: SK-OV-3 ovarian
U251 CNS = system: U251 CNS

With COc1ccc(N2C(=O)C3CC(c4ccc(Br)cc4)c4c([nH]c5ccccc45)C3C2=O)cc1 (stereo not given) the TGI (CAKI-1 renal) was 29.6 µM, the TGI (COLO 205 colon) was 34.8 µM and the TGI (HOP-62 NSCLC) was 11.5 µM. The TGI (HOP-18 NSCLC) was 24.8 µM, the TGI (RPMI-8226 leukemia) was greater than 100 µM and the TGI (DLD-1 colon) was 23.4 µM. For the same molecule, the TGI (EKVX NSCLC) was 42.7 µM, the TGI (NCI-H23 lung) was 28.5 µM and the TGI (UO-31 renal) was 27.1 µM. For the same molecule, the TGI (NCI-H226 lung) was 77.2 µM, the TGI (MALME-3M melanoma) was 36.7 µM and the TGI (A549 NSCLC) was 6.96 µM. It also gave a TGI (HOP-92 NSCLC) of 29.3 µM, a TGI (NCI-H460 lung) of 17.2 µM and a TGI (OVCAR-4 ovarian) of 9.29 µM. For the same molecule, the TGI (UACC-62 melanoma) was 32.3 µM, the TGI (CCRF-CEM leukemia) was greater than 100 µM and the TGI (KM20L2 colon) was 27.3 µM. The TGI (SNB-75 CNS) was 22.5 µM, the TGI (KM12 colon) was greater than 100 µM and the TGI (TK-10 renal) was 20 µM. The TGI (OVCAR-8 ovarian) was 5.96 µM, the TGI (786-0 renal) was 4.45 µM and the TGI (DMS 273 small cell lung) was 18.2 µM. The TGI (XF 498 CNS) was 32 µM, the TGI (HCT-15 colon) was greater than 100 µM and the TGI (SF-268 CNS) was 23.4 µM. For the same molecule, the TGI (IGROV1 ovarian) was 26.2 µM, the TGI (SNB-19 CNS) was 10.5 µM and the TGI (M19-MEL melanoma) was 25.6 µM. For the same molecule, the TGI (HL-60(TB) leukemia) was greater than 100 µM, the TGI (HCT-116 colon) was 16.1 µM and the TGI (HT29 colon) was 44.5 µM. For the same molecule, the TGI (UACC-257 melanoma) was 36.8 µM, the TGI (SK-MEL-5 melanoma) was 35.5 µM and the TGI (M14 melanoma) was greater than 100 µM. The TGI (SF-295 CNS) was 24.3 µM, the TGI (MOLT-4 leukemia) was 29 µM and the TGI (SK-MEL-28 melanoma) was 28.5 µM. For the same molecule, the TGI (SW-620 colon) was 18.5 µM, the TGI (DMS 114 small cell lung) was 20.8 µM and the TGI (SK-MEL-2 melanoma) was greater than 100 µM. The TGI (LOX IMVI melanoma) was 16.3 µM, the TGI (SN12C renal) was 15.2 µM and the TGI (K-562 leukemia) was 27.8 µM. The TGI (OVCAR-5 ovarian) was 73.4 µM, the TGI (LXFL 529 NSCLC) was 14.2 µM and the TGI (A498 renal) was 22.3 µM. For the same molecule, the TGI (SNB-78 CNS) was 36.3 µM, the TGI (SF-539 CNS) was 11.7 µM and the TGI (ACHN renal) was 15.4 µM.

With COC(=O)[C@H](Cc1ccccc1)NC(=O)c1ccc(CNC(=O)/C=C/c2ccc(OCc3ccccc3)cc2)cc1 the TGI (MDA-N) was 5.43 µM, the TGI (CAKI-1 renal) was 26 µM and the TGI (COLO 205 colon) was greater than 100 µM. For the same molecule, the TGI (HOP-62 NSCLC) was 26.3 µM, the TGI (RPMI-8226 leukemia) was greater than 100 µM and the TGI (EKVX NSCLC) was 87.6 µM. The TGI (NCI-H23 lung) was 33.5 µM, the TGI (UO-31 renal) was 29.5 µM and the TGI (NCI-H226 lung) was 49.8 µM. It also gave a TGI (HS 578T breast) of 21.1 µM, a TGI (SR leukemia) greater than 100 µM and a TGI (MALME-3M melanoma) of 11.5 µM. The TGI (A549 NSCLC) was greater than 72.7 µM, the TGI (HOP-92 NSCLC) was 9.43 µM and the TGI (NCI-H460 lung) was greater than 100 µM. It also gave a TGI (MDA-MB-435) of 12.8 µM, a TGI (OVCAR-4 ovarian) of 25.2 µM and a TGI (UACC-62 melanoma) of 18.6 µM. For the same molecule, the TGI (CCRF-CEM leukemia) was greater than 100 µM, the TGI (OVCAR-3 ovarian) was 28.2 µM and the TGI (NCI/ADR-RES ovarian) was greater than 78 µM. For the same molecule, the TGI (RXF 393 renal) was 18.7 µM, the TGI (MDA-MB-231 breast) was 47 µM and the TGI (BT-549 breast) was 57.9 µM. It also gave a TGI (SNB-75 CNS) of 31.6 µM, a TGI (KM12 colon) greater than 100 µM and a TGI (TK-10 renal) of 32 µM. The TGI (OVCAR-8 ovarian) was 36.4 µM, the TGI (786-0 renal) was 19.1 µM and the TGI (HCT-15 colon) was greater than 100 µM. It also gave a TGI (SF-268 CNS) of 28.1 µM, a TGI (IGROV1 ovarian) of 9.66 µM and a TGI (SNB-19 CNS) of 36.8 µM. The TGI (HCC-2998 colon) was greater than 100 µM, the TGI (HL-60(TB) leukemia) was 11.8 µM and the TGI (HCT-116 colon) was greater than 100 µM. It also gave a TGI (T-47D breast) of 72.2 µM, a TGI (HT29 colon) greater than 58 µM and a TGI (UACC-257 melanoma) of 7.33 µM. The TGI (SK-MEL-5 melanoma) was 33.4 µM, the TGI (M14 melanoma) was 7.38 µM and the TGI (SF-295 CNS) was 35.7 µM. For the same molecule, the TGI (MOLT-4 leukemia) was 28 µM, the TGI (NCI-H522 lung) was greater than 100 µM and the TGI (DU-145 prostate) was 32.4 µM. For the same molecule, the TGI (SK-MEL-28 melanoma) was 25.2 µM, the TGI (SW-620 colon) was greater than 100 µM and the TGI (SK-MEL-2 melanoma) was 7.92 µM. For the same molecule, the TGI (LOX IMVI melanoma) was greater than 100 µM, the TGI (SN12C renal) was 32.6 µM and the TGI (MCF7 breast) was greater than 100 µM. It also gave a TGI (PC-3 prostate) of 43.8 µM, a TGI (K-562 leukemia) greater than 100 µM and a TGI (OVCAR-5 ovarian) greater than 81.6 µM. The TGI (SK-OV-3 ovarian) was 59.9 µM, the TGI (A498 renal) was 21.4 µM and the TGI (U251 CNS) was greater than 75.4 µM. For the same molecule, the TGI (SF-539 CNS) was 51.9 µM and the TGI (ACHN renal) was 33 µM.

Reference: PubChem BioAssay (NCI)
